# Patent US11241455B2, “Methods of treating disease by metabolic control of T-cell differentiation” (The J. David Gladstone Institutes, a testamentary trust …, priority 2016, dated 2022)
# Columns and labels:
# [1] = tested on: differentiating TH17 cells; assay: U-13C glutamine flux analysis in differentiating TH17 cells; assay type: cell-based, mouse; conditions: 2 mM U-13C-glutamine for 4 hours
# Description: CD4 naïve T cells, differentiating TH17 or iTreg cells (68 hours) were incubated with fresh media prior to labeling. The cells were then cultured for 4 hours at 37° C. with medium where the glutamine was replaced with the corresponding stable isotope label: 2 mM U-^13C glutamine or 2 mM ^15N-α-glutamine for 4 hours at 37° C. The cells were quickly collected and quickly washed with phosphate buffer saline (PBS), pelleted, and snap frozen in liquid nitrogen. The frozen samples were kept in −80° C. until extraction. Cell extracts were prepared by first adding 80/20 MeOH/H2O at −60° C. to the frozen pellets and collecting the supernatant after centrifugation at 4° C. The extracted samples were analyzed by high-resolution liquid-chromatography-mass spectrometry. Unlabeled glutamine-fed cells were used as background. For negative mode metabolomics: Cell extracts obtained as described above were analyzed for relative abundance of metabolites by liquid chromatography-triple quadrupole mass spectrometry (LC-MS) using scheduled selective reaction monitoring (SRM) for each metabolite of interest, with the detector set to negative mode. Prior to injection, dried extracts were reconstituted in LC-MS grade water. LC separation was achieved by reverse-phase ion-pairing chromatography.
# [2] = tested on: differentiating iTreg cells; assay: Intracellular metabolite profiling by LC/MS in differentiating iTreg cells; assay type: cell-based, mouse; conditions: day 2.5, 0.5 mM AOA
# Description: CD4 naïve T cells, differentiating TH17 cells (day 2.5), and differentiating iTreg cells (day 2.5) were obtained as described above. A solution of 80/20 methanol (MeOH)/H2O was used to extract intracellular metabolites. The extracted samples were analyzed with liquid chromatography (LC)/mass spectrometry (MS) metabolomics. 200 ng/mL of extraction standard (L-Glutamic acid-^13C5-^15N-d5) was added into samples, and the peak value for each metabolite was normalized to extraction standard. The data was transformed into Log 2 and clustered. Cell extracts obtained as described above were analyzed for relative abundance of ^13C and ^15N metabolites by liquid chromatography-triple quadrupole mass spectrometry (LC-MS) using scheduled selective reaction monitoring (SRM) for each metabolite of interest, with the detector set to negative mode. Quantitation of intracellular 2-hydroxyglutarate (2HG) was conducted as described previously (Kernesky et al., Blood 2015, 125(2) 296-303).
# [3] = tested on: FOXP3 promoter and its intronic CpG island; assay: Methylation analysis by bisulfite sequencing, T cells under iTreg condition; assay type: cell-based, mouse; conditions: iTreg condition (day 5); 0.5 mM dimethyl R-2-HG or AOA; male mice
# Description: The method is essentially the same as described previously (Kim, et al. J Exp Med 204 (7), 1543-1551 (2007)). Briefly, genomic DNA was purified with Blood & Cell Culture DNA Midi Kit (Qiagen). Bisufite conversion of genomic DNA was performed using Epitect® bisulfite kit (Qiagen), according to the manufacture's instruction. The PCR product was run on 2% agarose, purified and cloned using TOPO® TA Cloning® Kit with PCR®4. Clones are picked for Sanger sequencing.
# [4] = tested on: EAE induced in C57BL/6 mice; assay: Mouse experimental autoimmune encephalitis (EAE) model; assay type: in vivo
# Description: EAE was induced by immunizing mice (12 weeks old, 11-12 mice/group) twice with 300 μg of MOG35-55 peptide (amino acids 35-55; MEVGWYRSPFSROVHLYRNGK (SEQ ID NO: 2)) emulsified in complete Freund's adjuvant, followed by pertussis toxin injection and analyzed. The disease scores were assigned on a scale of 0-5 as follows: 0, none; 1, limp tail or waddling gait with tail tonicity; 2, wobbly gait; 3, hind limb paralysis; 4, hind limb and forelimb paralysis; 5, death. When the disease phenotype was very obvious (average score>1), PBS or (aminooxy)-acetic acid (AOA) (750 μg/mice) was intraperitoneal (i.p.) injected every day. After 8 days of administration of AOA or PBS, the mice were anesthetized, and cells infiltrated into brain and spinal cord were collected for analysis. When indicated, the statistical significance was determined by Student's t test (*, p<0.05; **, p<0.01; ***, p<0.001). All animal work was approved by the Institutional Animal Care and Use Committee (IACUC).
# The in vitro findings that AOA regulates the TH17/iTreg balance prompted an investigation into the effects of AOA in vivo in the context of a pathologic TH17-dependent disease state. TH17 cells are the major pathogenic cell population in experimental autoimmune encephalomyelitis (EAE), a mouse model of multiple sclerosis, but FOXP3+regulatory T cells suppress TH17 cell-mediated inflammatory diseases, such as EAE. In the in vitro studies, AOA skewed TH17 differentiation towards FOXP3+ iTreg cells and, therefore, offers a potential to treat TH17-mediated autoimmune diseases. To test this possibility, EAE was induced in C57BL/6 mice by immunizing with myelin oligodendrocyte glycoprotein peptide (MOG35-55) in complete Freund's adjuvant (CFA) as described. AOA or control vehicle was injected daily intraperitoneally after a majority of the mice began to show obvious neurological signs, including tail paralysis that progressed to hind and front limb paralysis (disease score>1). […] The ratio of FOXP3+ cells to IL17+ cells is much higher in AOA-treated mice than in control mice (FIG. 4c).
# [5] = tested on: FOXP3 mRNA in iTreg cells; assay: mRNA expression analysis by qRT-PCR in iTreg cells; assay type: cell-based, mouse; conditions: normalized to β-actin
# Description: At the end of differentiation (day 6), T cells were re-stimulated with plate-coated anti-CD3 and anti-CD28 for 5 hours in the absence of any small-molecule compounds or metabolites. Quantitative reverse transcriptase polymerase chain reaction (qRT-PCR) was performed to evaluate mRNA expression of FOXP3, Il17, Il17f, and Rorc. For differentiating TH17 or iTreg cells, cells were collected on day 2.5 or at the indicated time for mRNA expression analysis. The expression was normalized to β-actin.
# [6] = brain and spinal cord infiltrated T cells after 8 days of AOA 750 μg/mice i.p. daily, p<0.01
compound,measurement,setting,value
"NOCC(=O)O [AOA, (aminooxy)-acetic acid]","de novo synthesis of α-KG and 2-HG (U-13C labeled, normalized to U-13C-glutamine)",[1],inhibited
same,"abundance of TCA cycle intermediates (α-KG, succinate, fumarate, malate, citrate)",[2],reduced partially
same,level of glutamate,[2],slightly higher
same,reduction of steady-state levels of 2-HG,[2],50%
same,methylation level of FOXP3 promoter and its intronic CpG island,[3],dramatically decreased the methylation levels
same,"recovery from EAE diseases (disease scores, scale of 0-5)","[4]; 750 μg/mice i.p. every day, started when average score>1, versus PBS",significant recovery from EAE diseases
same,ratio of FOXP3+ cells to IL17+ cells,"[4]; AOA-treated mice versus control mice, CNS infiltrated T cells",much higher
same,percentage of FOXP3+ T cells in the central nervous system,[4]; [6],increased
same,percentage of TH17 cells in the central nervous system,[4]; [6],significantly reduced
same,FOXP3 mRNA expression,[5],promoted transcription of FOXP3
